# Measurements: ChEMBL document CHEMBL5329217, “Hesperidin Methyl Chalcone reduces extracellular Aβ(25-35) peptide aggregation and fibrillation and also protects Neuro 2a cells from Aβ(25-35) induced neuronal dysfunction” (Bioorg Med Chem, 2023)
# Calls of active or inactive are those of the source. The rule behind the calls is not given here.
# Assays:
# [1] = biological target: Amyloid-beta precursor protein (Homo sapiens) (UniProt P05067); assay: Inhibition of amyloid beta (25 to 35) (unknown origin) aggregation assessed as fluorescence intensity at 50 ug/ml incubated for 96 hrs by ThT-based fluorescence analysis (reference value: 31.63 +/-0.68 AU); details: dose 50.0 µg/ml
# [2] = biological target: Amyloid-beta precursor protein (Homo sapiens) (UniProt P05067); assay: Inhibition of amyloid beta (25 to 35) (unknown origin) aggregation assessed as fluorescence intensity at 50 ug/ml incubated for 48 hrs by ThT-based fluorescence analysis (reference value: 26.85 +/-0.78 AU); details: dose 50.0 µg/ml
# N2a [3] = assay: Inhibition of Amyloid beta (25 to 35)-induced apoptosis in mouse Neuro2a cells assessed as increase in BCl2 expression at 50 ug/ml pretreated for 2 hrs followed by amyloid beta (25 to 35) addition and measured after 24 hrs by Western blot analysis; format: functional, cell-based; details: dose 50.0 µg/ml, time 26.0 hrs
# [4] = biological target: T1, Acetylcholinesterase (Mus musculus) (UniProt P21836); assay: Inhibition of Amyloid beta (25 to 35)-induced AChE activity in mouse Neuro2a cells assessed as AChE activity at 50 ug/ml pretreated for 2 hrs followed by amyloid beta (25 to 35) addition and measured after 24 hrs per mg protein (reference value: 0.0012 +/-4.18 U); format: cell-based; details: dose 50.0 µg/ml, time 26.0 hrs
# T1 sequence (whole entry): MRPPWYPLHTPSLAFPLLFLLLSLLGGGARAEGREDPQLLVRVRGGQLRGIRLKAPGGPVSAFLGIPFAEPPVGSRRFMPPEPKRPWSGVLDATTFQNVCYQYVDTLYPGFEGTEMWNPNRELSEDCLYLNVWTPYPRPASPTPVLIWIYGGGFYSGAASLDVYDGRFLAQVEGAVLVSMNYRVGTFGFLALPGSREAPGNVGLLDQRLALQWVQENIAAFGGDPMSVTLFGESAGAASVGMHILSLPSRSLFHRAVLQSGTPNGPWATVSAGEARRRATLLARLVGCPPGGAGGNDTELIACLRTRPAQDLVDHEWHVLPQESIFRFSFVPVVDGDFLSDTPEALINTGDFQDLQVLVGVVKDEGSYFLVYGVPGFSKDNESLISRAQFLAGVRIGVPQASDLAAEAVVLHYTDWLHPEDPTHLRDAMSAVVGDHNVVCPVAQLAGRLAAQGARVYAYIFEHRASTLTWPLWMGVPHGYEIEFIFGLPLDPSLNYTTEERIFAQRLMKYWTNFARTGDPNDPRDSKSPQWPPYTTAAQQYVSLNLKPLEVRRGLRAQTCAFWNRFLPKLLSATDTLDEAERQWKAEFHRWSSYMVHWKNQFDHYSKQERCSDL
# N2a [5] = assay: Neuroprotective activity against Amyloid beta (25 to 35)-induced toxicity in mouse Neuro2a cells assessed as non-apoptotic viable cells at 25 ug/ml pretreated for 2 hrs followed by amyloid beta (25 to 35) addition and measured after 24 hrs by AO/EtBr dual staining based fluorescence microscopy (reference value: 53.4 +/-3.88%); format: functional; details: dose 25 µg/ml; time 26 hrs
# N2a [6] = assay: Inhibition of Amyloid beta (25 to 35)-induced macromolecular damage in mouse Neuro2a cells assessed as reduction in protein oxidation by measuring protein carbonyl content at 50 ug/ml pretreated for 2 hrs followed by amyloid beta (25 to 35) addition and measured after 24 hrs per mg protein (reference value: 44.06 +/- 1.02 […]); format: functional; details: dose 50 µg/ml; time 26 hrs
# [7] = biological target: Amyloid-beta precursor protein (Homo sapiens) (UniProt P05067); assay: Inhibition of amyloid beta (25 to 35) (unknown origin) aggregation assessed as fluorescence intensity at 50 ug/ml incubated for 9 days by ThT-based fluorescence microscopic analysis (reference value: 36.84 +/-0.94 AU); details: dose 50.0 µg/ml, time 9.0 day
# N2a [8] = assay: Inhibition of Amyloid beta (25 to 35)-induced apoptosis in mouse Neuro2a cells assessed as Bax/Bcl2 ratio at 50 ug/ml pretreated for 2 hrs followed by amyloid beta (25 to 35) addition and measured after 24 hrs by Western blot analysis (reference value: 1.09 +/- 0.018); format: functional; details: dose 50 µg/ml; time 26 hrs
# [9] = Cytotoxicity against mouse Neuro2a cells assessed as cell viability at 100 ug/ml incubated for 24 hrs by MTT assay; format: toxicity, cell-based; details: Neuro2a (N2a) cells, at 100 µg/mL, read-out: Activity
# N2a [10] = assay: Inhibition of Amyloid beta (25 to 35)-induced macromolecular damage in mouse Neuro2a cells assessed as reduction in lipid peroxidation by measuring MDA content at 50 ug/ml pretreated for 2 hrs followed by amyloid beta (25 to 35) addition and measured after 24 hrs per mg protein (reference value: 106.4 +/-1.9 nmol); format: functional; details: dose 50 µg/ml; time 26 hrs
# [11] = biological target: Acetylcholinesterase (Electrophorus electricus) (UniProt O42275); assay: Inhibition of electric eel AchE using acetylthiocholine iodide as substrate at 20 to 100 ug/ml by Ellman's method relative to control; details: dose 20-100 µg/ml
# Artemia salina [12] = assay: Toxicity in Artemia salina assessed as induction of morphological changes by measuring variation in the mandibles at 5 to 100 ug/ml treated for 24 hrs by phase contrast light microscopy; format: organism-based; details: in vivo, dose 5-100 µg/ml
# [13] = biological target: Cholinesterase (Mus musculus) (UniProt Q03311); assay: Inhibition of Amyloid beta (25 to 35)-induced BuChE activity in mouse Neuro2a cells assessed as BuChE activity at 50 ug/ml pretreated for 2 hrs followed by amyloid beta (25 to 35) addition and measured after 24 hrs per mg protein (reference value: 0.0007 +/-3.64 U); format: cell-based; details: dose 50.0 µg/ml, time 26.0 hrs
# N2a [14] = assay: Inhibition of Amyloid beta (25 to 35)-induced oxidative damage in mouse Neuro2a cells assessed as reduction in ROS production by measuring reduction in fluorescence intensity at 25 to 50 ug/ml pretreated for 2 hrs followed by amyloid beta (25 to 35) addition and measured after 24 hrs by DCFH-DA staining -based spectrofluorimetric assay; format: functional, cell-based; details: dose 25-50 µg/ml, time 26.0 hrs
# N2a [15] = assay: Neuroprotective activity against Amyloid beta (25 to 35)-induced toxicity in mouse Neuro2a cells assessed as reduction in cell viability loss at 25 to 100 ug/ml pretreated for 2 hrs followed by amyloid beta (25 to 35) addition and measured after 24 hrs by MTT assay; format: functional, cell-based; details: dose 25-100 µg/ml, time 26.0 hrs
# [16] = biological target: Amyloid-beta precursor protein (Homo sapiens) (UniProt P05067); assay: Inhibition of amyloid beta (25 to 35) (unknown origin) aggregation assessed as fluorescence intensity at 50 ug/ml incubated for 24 hrs by ThT-based fluorescence analysis (reference value: 22.15 +/-1.41 AU); details: dose 50.0 µg/ml
# N2a [17] = assay: Neuroprotective activity against Amyloid beta (25 to 35)-induced toxicity in mouse Neuro2a cells assessed as non-apoptotic viable cells at 50 ug/ml pretreated for 2 hrs followed by amyloid beta (25 to 35) addition and measured after 24 hrs by AO/EtBr dual staining based fluorescence microscopy (reference value: 53.4 +/-3.88%); format: functional; details: dose 50 µg/ml; time 26 hrs
# N2a [18] = assay: Inhibition of Amyloid beta (25 to 35)-induced apoptosis in mouse Neuro2a cells assessed as decrease in Bax expression at 50 ug/ml pretreated for 2 hrs followed by amyloid beta (25 to 35) addition and measured after 24 hrs by Western blot analysis; format: functional, cell-based; details: dose 50.0 µg/ml, time 26.0 hrs
# Artemia salina [19] = assay: Toxicity in Artemia salina assessed as induction of morphological changes by measuring improper antennae swimming setae at 5 to 100 ug/ml treated for 24 hrs by phase contrast light microscopy; format: organism-based; details: in vivo, dose 5-100 µg/ml
# [20] = Toxicity in Artemia salina assessed as lethal dose; format: organism-based; details: in vivo
# N2a [21] = assay: Inhibition of Amyloid beta (25 to 35)-induced macromolecular damage in mouse Neuro2a cells assessed as reduction in protein oxidation by measuring protein carbonyl content at 25 ug/ml pretreated for 2 hrs followed by amyloid beta (25 to 35) addition and measured after 24 hrs per mg protein (reference value: 44.06 +/- 1.02 nmol); format: functional; details: dose 25 µg/ml; time 26 hrs
# [22] = biological target: Amyloid-beta precursor protein (Homo sapiens) (UniProt P05067); assay: Disaggregation of amyloid beta (25 to 35) (unknown origin) mature fibrils at 50 ug/ml incubated for 1 to 9 days by ThT-based fluorescence microscopic analysis; details: dose 50.0 µg/ml, time 1-9 day
# N2a [23] = assay: Inhibition of Amyloid beta (25 to 35)-induced apoptosis in mouse Neuro2a cells assessed as reduction in caspase-3 activity by measuring PNA level at 50 ug/ml pretreated for 2 hrs followed by amyloid beta (25 to 35) addition and measured after 24 hrs per mg protein (reference value: 0.12 +/-0.004 mM/min); format: functional; details: dose 50 µg/ml; time 26 hrs
# [24] = biological target: Cholinesterase (Mus musculus) (UniProt Q03311); assay: Inhibition of Amyloid beta (25 to 35)-induced BuChE activity in mouse Neuro2a cells assessed as BuChE activity at 25 ug/ml pretreated for 2 hrs followed by amyloid beta (25 to 35) addition and measured after 24 hrs per mg protein (reference value: 0.0007 +/-3.64 U); format: cell-based; details: dose 25.0 µg/ml, time 26.0 hrs
# [25] = biological target: Acetylcholinesterase (Electrophorus electricus) (UniProt O42275); assay: Inhibition of electric eel AchE using acetylthiocholine iodide as substrate at 100 ug/ml by Ellman's method relative to control; details: dose 100.0 µg/ml
# [26] = Toxicity in Artemia salina assessed as mortality rate at 5 ug/ml measured after 24 hrs relative to control; format: organism-based; details: in vivo, at 5 µg/mL
# Artemia salina [27] = assay: Toxicity in Artemia salina assessed as decrease in total length of the shrimp at 5 to 100 ug/ml measured after 24 hrs by phase contrast light microscopy; format: organism-based; details: in vivo, dose 5-100 µg/ml
# [28] = Toxicity in Artemia salina assessed as mortality rate at 25 ug/ml measured after 24 hrs relative to control; format: organism-based; details: in vivo, at 25 µg/mL
# [29] = Antioxidant activity assessed as free radical scavenging activity at 100 ug/ml by DPPH assay relative to control; format: functional; details: dose 100.0 µg/ml
# [30] = biological target: T1, Acetylcholinesterase (Mus musculus); assay: Inhibition of Amyloid beta (25 to 35)-induced AChE activity in mouse Neuro2a cells assessed as AChE activity at 25 ug/ml pretreated for 2 hrs followed by amyloid beta (25 to 35) addition and measured after 24 hrs per mg protein (reference value: 0.0012 +/-4.18 U); format: cell-based; details: dose 25.0 µg/ml, time 26.0 hrs
# [31] = Toxicity in Artemia salina assessed as mortality rate at 100 ug/ml measured after 24 hrs relative to control; format: organism-based; details: in vivo, at 100 µg/mL
# [32] = Toxicity in Artemia salina assessed as mortality rate at 75 ug/ml measured after 24 hrs relative to control; format: organism-based; details: in vivo, at 75 µg/mL
# N2a [33] = assay: Inhibition of Amyloid beta (25 to 35)-induced macromolecular damage in mouse Neuro2a cells assessed as reduction in lipid peroxidation by measuring MDA content at 25 ug/ml pretreated for 2 hrs followed by amyloid beta (25 to 35) addition and measured after 24 hrs per mg protein (reference value: 106.4 +/-1.9 nmol); format: functional; details: dose 25 µg/ml; time 26 hrs
# Artemia salina [34] = assay: Toxicity in Artemia salina assessed as induction of morphological changes by measuring improper development at 5 to 100 ug/ml treated for 24 hrs by phase contrast light microscopy; format: organism-based; details: in vivo, dose 5-100 µg/ml
# [35] = Toxicity in Artemia salina assessed as mortality rate at 50 ug/ml measured after 24 hrs relative to control; format: organism-based; details: in vivo, at 50 µg/mL
# N2a [36] = assay: Cytotoxicity against mouse Neuro2a cells upto 200 ug/ml incubated for 24 hrs by MTT assay; format: toxicity, cell-based; details: dose < 200 µg/ml
# N2a [37] = assay: Inhibition of Amyloid beta (25 to 35)-induced mitochondrial membrane potential loss in mouse Neuro2a cells at 25 to 50 ug/ml pretreated for 2 hrs followed by amyloid beta (25 to 35) addition and measured after 24 hrs by rhodamine 123 staining based fluorescent spectrophotometry; format: functional, cell-based; details: dose 25-50 µg/ml, time 26.0 hrs
# N2a [38] = assay: Inhibition of Amyloid beta (25 to 35)-induced apoptosis in mouse Neuro2a cells assessed as reduction in caspase-3 activity by measuring PNA level at 25 ug/ml pretreated for 2 hrs followed by amyloid beta (25 to 35) addition and measured after 24 hrs per mg protein (reference value: 0.12 +/-0.004 mM/min); format: functional; details: dose 25 µg/ml; time 26 hrs
# Chain of Amyloid-beta precursor protein (Homo sapiens) (P05067 whole entry): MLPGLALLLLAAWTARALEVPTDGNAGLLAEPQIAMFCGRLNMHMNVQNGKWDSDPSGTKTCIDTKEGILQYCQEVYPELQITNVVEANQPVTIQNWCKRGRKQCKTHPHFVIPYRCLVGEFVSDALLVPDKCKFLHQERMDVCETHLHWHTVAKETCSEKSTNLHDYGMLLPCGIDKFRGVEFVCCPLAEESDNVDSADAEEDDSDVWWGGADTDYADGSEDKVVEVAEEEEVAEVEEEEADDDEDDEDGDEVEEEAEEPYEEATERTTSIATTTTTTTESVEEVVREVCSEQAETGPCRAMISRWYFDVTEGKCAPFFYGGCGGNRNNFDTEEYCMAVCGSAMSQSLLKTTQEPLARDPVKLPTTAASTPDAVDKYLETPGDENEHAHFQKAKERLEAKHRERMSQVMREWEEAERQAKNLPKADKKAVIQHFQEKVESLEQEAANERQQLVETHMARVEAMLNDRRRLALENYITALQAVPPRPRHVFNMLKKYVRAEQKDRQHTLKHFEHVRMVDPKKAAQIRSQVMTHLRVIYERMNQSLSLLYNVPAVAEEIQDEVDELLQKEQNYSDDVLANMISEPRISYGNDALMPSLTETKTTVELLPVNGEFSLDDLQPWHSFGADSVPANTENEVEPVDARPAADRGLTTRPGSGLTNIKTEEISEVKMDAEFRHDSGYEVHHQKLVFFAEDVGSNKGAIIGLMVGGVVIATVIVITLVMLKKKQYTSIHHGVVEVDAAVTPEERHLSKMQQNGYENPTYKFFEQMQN
# Chain of Cholinesterase (Mus musculus) (Q03311 whole entry): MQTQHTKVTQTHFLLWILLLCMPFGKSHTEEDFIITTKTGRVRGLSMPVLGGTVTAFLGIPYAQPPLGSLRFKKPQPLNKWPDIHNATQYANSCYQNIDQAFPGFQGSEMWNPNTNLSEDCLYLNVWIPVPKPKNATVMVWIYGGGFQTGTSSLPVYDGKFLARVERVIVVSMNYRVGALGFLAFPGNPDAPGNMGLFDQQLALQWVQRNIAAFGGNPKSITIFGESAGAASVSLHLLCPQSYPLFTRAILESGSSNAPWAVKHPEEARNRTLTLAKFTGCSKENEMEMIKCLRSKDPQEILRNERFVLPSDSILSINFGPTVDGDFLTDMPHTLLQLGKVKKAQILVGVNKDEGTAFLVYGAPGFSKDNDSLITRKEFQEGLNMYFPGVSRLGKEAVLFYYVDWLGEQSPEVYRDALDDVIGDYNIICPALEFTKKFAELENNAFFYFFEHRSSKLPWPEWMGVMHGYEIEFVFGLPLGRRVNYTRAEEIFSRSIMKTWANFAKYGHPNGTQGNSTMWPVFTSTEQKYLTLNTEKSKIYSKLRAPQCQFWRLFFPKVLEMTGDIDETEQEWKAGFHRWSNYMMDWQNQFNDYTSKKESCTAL
# Chain of Acetylcholinesterase (Electrophorus electricus) (O42275 24-633 limits assumed): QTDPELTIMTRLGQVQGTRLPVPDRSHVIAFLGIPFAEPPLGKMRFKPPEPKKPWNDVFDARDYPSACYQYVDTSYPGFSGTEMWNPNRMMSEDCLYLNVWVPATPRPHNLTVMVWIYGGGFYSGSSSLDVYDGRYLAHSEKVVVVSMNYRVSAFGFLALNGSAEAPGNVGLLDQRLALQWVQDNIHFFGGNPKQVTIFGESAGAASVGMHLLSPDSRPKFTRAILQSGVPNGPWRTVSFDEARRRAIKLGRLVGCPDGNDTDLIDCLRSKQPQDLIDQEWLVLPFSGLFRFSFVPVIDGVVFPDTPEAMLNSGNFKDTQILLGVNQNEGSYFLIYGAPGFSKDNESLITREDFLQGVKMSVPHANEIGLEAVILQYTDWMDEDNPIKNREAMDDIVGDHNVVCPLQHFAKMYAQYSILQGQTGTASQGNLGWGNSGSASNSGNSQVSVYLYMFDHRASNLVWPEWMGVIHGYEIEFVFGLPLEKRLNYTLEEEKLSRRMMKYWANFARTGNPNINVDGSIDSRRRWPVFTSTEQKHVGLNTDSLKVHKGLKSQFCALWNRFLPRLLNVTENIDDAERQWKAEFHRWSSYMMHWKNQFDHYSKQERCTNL
compound,measurement,setting,value
COc1ccc(/C=C/C(=O)c2c(O)cc(O[C@@H]3O[C@H](CO[C@@H]4O[C@@H](C)[C@H](O)[C@@H](O)[C@H]4O)[C@@H](O)[C@H](O)[C@H]3O)cc2OC)cc1O,Flu intensity,[1],10 a.u.
same,Flu intensity,[2],6.45 a.u.
same,inhibition,N2a [3],Active
same,Activity,[4],0 U
same,Activity,N2a [5],70.33%
same,Activity,N2a [6],27.9 nmol/mg
same,Flu intensity,[7],11.8 a.u.
same,Ratio,N2a [8],0.51
same,"viability at 24 h, 100 ug/ml",[9],99.6%
same,Activity,N2a [10],64.63 nmol
same,inhibition,[11],> 80%
same,Activity,Artemia salina [12],Toxic
same,Activity,[13],0 U
same,inhibition,N2a [14],Active
same,Activity,N2a [15],Active
same,Flu intensity,[16],19.8 a.u.
same,Activity,N2a [17],81.66%
same,inhibition,N2a [18],Active
same,Activity,Artemia salina [19],Toxic
same,LC50,[20],100 mg/L
same,Activity,N2a [21],33.9 nmol/mg
same,Activity,[22],Active
same,Activity,N2a [23],0.03 mM/min
same,Activity,[24],0 U
same,inhibition,[25],93%
same,"mortality at 24 h, 5 ug/ml",[26],0%
same,Activity,Artemia salina [27],Toxic
same,"mortality at 24 h, 25 ug/ml",[28],0%
same,inhibition,[29],68.4%
same,Activity,[30],0 U
same,"mortality at 24 h, 100 ug/ml",[31],53.3%
same,"mortality at 24 h, 75 ug/ml",[32],36.6%
same,Activity,N2a [33],77.84 nmol
same,Activity,Artemia salina [34],Toxic
same,"mortality at 24 h, 50 ug/ml",[35],3.33%
same,Activity,N2a [36],Non-Toxic
same,inhibition,N2a [37],Active
same,Activity,N2a [38],0.07 mM/min
